One may read the IC50 as the concentration that gives 50% inhibition.

This test deals with Protease (Human immunodeficiency virus 1, UniProt Q9YQ12). Nature of the test: Inhibition of recombinant HIV1 protease.
Chain of Protease (Q9YQ12 whole entry): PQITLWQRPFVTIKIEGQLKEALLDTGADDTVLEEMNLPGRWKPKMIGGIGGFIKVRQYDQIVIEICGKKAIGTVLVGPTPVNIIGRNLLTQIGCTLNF
`CC(=O)O[C@@H]1C[C@H]([C@H](C)[C@H]2CC=C(C)C(=O)O2)[C@@]2(C)CCC3=C(CC[C@@H]4C(=C3)C=CC(=O)OC4(C)C)[C@]12C` [COLOSSOLACTONE E]: the IC50 was 15.3 µM. For `CC(=O)OC[C@]12CC[C@H](O)C(C)(C)[C@@H]1CCC1=C2CC[C@]2(C)[C@@H]([C@H](C)C(O)C/C=C(/C)CO)CC[C@@]12C` (stereo partly drawn) [COLOSSOLACTONE A] the value was 75.5 µM; for `CC1=CC[C@H]([C@@H](C)[C@H]2CC[C@@]3(C)C4=C(C=C5C=CC(=O)OC(C)(C)[C@@H]5CC4)CC[C@]23C)OC1=O` [SCHISANLACTONE A], 10.8 µM. As to `CC(=O)O[C@@H]1C[C@H]([C@H](C)[C@@H]2OC(=O)C(C)=C[C@H]2O)[C@@]2(C)CCC3=C(CC[C@@H]4C(=C3)C=CC(=O)OC4(C)C)[C@]12C` [COLOSSOLACTONE VIII], the IC50 is 58.3 µM. For `COC(=O)CC[C@]1(COC(C)=O)C2=CC[C@]3(C)[C@@H]([C@H](C)[C@@H](C/C=C(/C)C(=O)O)OC(C)=O)CC[C@@]3(C)C2=CC[C@H]1C(C)(C)O` [COLOSSOLACTONE VI] the value was more than 162 µM; for `CC(=O)O[C@@H]1C[C@H]([C@H](C)[C@H]2CC=C(C)C(=O)O2)[C@@]2(C)CCC3=C(CC[C@]4(O)C(=C3)C=CC(=O)OC4(C)C)[C@]12C` [COLOSSOLACTONE G], 9.28 µM; for `COC(=O)CC[C@]1(COC(C)=O)C2=C(CC[C@H]1C(C)(C)O)[C@]1(C)CC[C@H]([C@H](C)[C@@H](C/C=C(/C)C(=O)O)OC(C)=O)[C@@]1(C)CC2` [COLOSSOLACTONE V], 14.5 µM. The figure for `COC(=O)CC[C@]1(COC(C)=O)C2=C(CC[C@H]1C(C)(C)O)[C@]1(C)CC[C@H]([C@H](C)[C@H]3CC=C(C)C(=O)O3)[C@@]1(C)CC2` [COLOSSOLACTONE VII] is 24.7 µM.

Values taken from ChEMBL document CHEMBL1157512, “Anti-HIV-1 protease activity of lanostane triterpenes from the vietnamese mushroom Ganoderma colossum” (J Nat Prod, 2008).
